Earlier results as cited in patent publication US6949518B1, “Methods for treating macular degeneration with topiramate” (priority 2003, dated 2005).

Columns and labels:
[1] = test system: patients with type 2 diabetes
[2] = elimination predominantly unchanged via the renal route

Compound: CC1(C)O[C@@H]2[C@@H](CO[C@@]3(COS(N)(=O)=O)OC(C)(C)O[C@@H]23)O1 [topiramate, 2,3:4,5-Di-O-isopropylidene-β-D-fructopyranose sulfamate]
- solubility in acetone, chloroform, dimethylsulfoxide, and ethanol (organic solvents): freely soluble
- pH of saturated solution (saturated solution): 6.3
- carbonic anhydrase inhibition (carbonic anhydrase): weak carbonic anhydrase inhibitor
- dendrite length ([1]; by the end of trial): increased
- peroneal nerve amplitude ([1]; by the end of trial): increased
- total neuropathy scores ([1]; end of trial, decreased from baseline 14, 11 patients, 25 mg/day titrated over 42 days to maximum tolerated dose or 100 mg/day, then 84 more days): 11.8
- plasma t½ [2]: 20 to 30 h
